Reference: US20190134034A1, “Method of Treating Liver Cancer” (ASLAN Pharmaceuticals Pte. Ltd., priority 2016, published 2019)
“Also recorded” adds a separate entry of the source.

Legend:
[1] = tested on: phosphorylation of HER1-3, RAS/RAF/MEK/MAPK, p70S6K, S6 ribosomal, 4EBP1, Cdc-2 and retinoblastoma; experiment: Western blot analysis of tumour lysates from HCC29-0909A xenograft (pharmacodynamics); type: in vivo, SCID mice; settings: Western blot of tumour lysates after two and fourteen days of treatment
[2] = tested on: HCC29-0909A HCC patient-derived xenograft (co-expression of HER1, HER2 and HER3); experiment: HCC patient-derived xenograft model HCC29-0909A in SCID mice, tumour volume; type: in vivo; settings: HCC29-0909A PDX in SCID mice
Protocol: A HCC patient-derived xenograft model in SCID mice (HCC29-0909A) with co-expression of HER1, HER2 and HER3 receptors [Cancer Res Aug. […] Dosing with varlitinib commenced when the tumours reached the size of approximately 100-150 mm^3. Bi-dimensional measurements are performed twice a week and tumour volumes are calculated based on the following formula: Tumour volume=[(Length)×(Width^2)×(p/6)].
Groups of mice were dosed as follows:
Group 1 control group received vehicle only
Group 2 received 25 mg/Kg of ASLAN001 BID (twice daily),
Group 3 received 50 mg/Kg of ASLAN001 BID (twice daily), and
Group 4 received 100 mg/Kg of ASLAN001 BID (twice daily).

MAPK pathway = experiment: Pharmacodynamics in HCC01-0708 PDX model; type: in vivo; settings: after twelve days of treatment
Huh7-SorR cells = experiment: Early apoptosis in sorafenib resistant cells (Muse Annexin V & Dead Cell Assay); type: cell-based; settings: high dose of varlitinib
Protocol: (§1) An in vitro experiment was conducted to investigate whether varlitinib induced apoptosis in HCC cell lines. HCC cells were grown in cell culture medium with 10% FBS and with varying concentrations of varlitinib. Apoptosis profiles were analysed at 24 hour and 48 hour timepoints, using Muse Annexin V & Dead Cell Assay kit and Muse Cell Analyser. Early apoptosis cells (identified as Annexin V-PE positive and Dead Cell Marker negative) were measured and plotted.

PLC/PRF/5 cells = experiment: Apoptosis (AnnexinV) profile of PLC/PRF/5 cells; type: cell-based; settings: 48 hour culture, increasing concentration
Protocol: as §1

HCC cell lines = experiment: Early apoptosis in HCC cell lines (Muse Annexin V & Dead Cell Assay); type: cell-based; settings: all HCC cell lines tested; 48 hours of incubation
Protocol: as §1

[3] = tested on: HCC01-0708 HER2/HER3 co-expressing PDX model of HCC; experiment: HCC patient-derived xenograft model HCC01-0708, tumour volume; type: in vivo; settings: HCC01-0708 PDX; 25, 50 or 100 mg/kg BID

C[C@@H]1COC(Nc2ccc3ncnc(Nc4ccc(OCc5nccs5)c(Cl)c4)c3c2)=N1 [varlitinib, (R)-N4-[3-Chloro-4-(thiazol-2-ylmethoxy)-phenyl]-N6-(4-methyl-4,5,-dihydro-oxazol-2-yl)-quinazoline-4,6-diamine] was tested, and the “phosphorylation of HER1-3, RAS/RAF/MEK/MAPK, p70S6K, S6 ribosomal, 4EBP1, Cdc-2 and retinoblastoma” value [1] was “strongly inhibited”, the tumor regression ([2]; 100 mg/kg BID) was “complete tumor regression” and the “tumour growth inhibition (tumour volume)” value ([2]; 25, 50 or 100 mg/kg BID) was “potently inhibited tumour growth; also recorded: dose-dependent tumour volume growth inhibition”. The “inhibition of the MAPK pathway” value (MAPK pathway) was “robust inhibition”, the early apoptosis (Huh7-SorR cells) was roughly 70% and the “percentage of apoptotic cells” value (PLC/PRF/5 cells) was “increase in percentage of apoptotic cells correlates with increasing varlitinib concentration”. The “induction of early apoptosis (Annexin V-PE positive, Dead Cell Marker negative)” value (HCC cell lines) was “able to induce early apoptosis” and the “tumour growth inhibition (tumour volume)” value [3] was “inhibited tumour growth; also recorded: dose-dependent tumour volume growth inhibition”.
